Measurements taken from US20180251847A1, “METHOD OF PREDICTING THE TUMOR RESPONSE TO DNA METHYLATION INHIBITORS AND ALTERNATIVE THERAPEUTIC REGIMEN FOR OVERCOMING RESISTANCE” (PALACKY UNIVERSITY, OLOMOUC, priority 2014, published 2018).
pIC50: −log10 of the molar value.

Key:
[1] = test system: R2.2 (HCT116-RDAC); test: MTT based cell survival assay, DAC resistant HCT116 clone R2.2; design: species or system human
Experimental: The DAC resistant HCT116 cell lines were developed using two methods.
The method is primarily based on reduction of yellow colored tetrazolium salt, 3-(4,5-dimethylthiazol-2-yl)-2,5-diphenyltetrazolium bromide (MTT) to insoluble purple colored formazan crystals by NAD(P)H-dependent oxidoreductase enzymes in mitochondria of the viable cell.
Cells in 80 μL of medium were plated in each of the experimental and the control wells, followed by addition of 20 μL medium with five-fold drug concentration to experimental wells. The wells with medium alone were included alongside as blank for absorbance readings. After 72 h of drug treatment, 10 μL MTT (Sigma-Aldrich) prepared in 1×PBS (5 mg/mL) was added to all wells including blank and control, and incubated until the purple formazan crystals were visible after which 100 μL of detergent (10% SDS, pH: 5.5) was added and the plates were incubated overnight to solubilize the formazan and the cellular material.
(§1) Cross resistance was determined as the fold increase, whereas, the sensitivity was determined as the fold decrease in the IC50 of the drugs for the resistant cell lines compared to their genetically identical drug sensitive counterpart.

[2] = test system: MCF-7_RDAC; test: MTT based cell survival assay, DAC resistant MCF-7; design: species or system human
Experimental: (§2) For cross validation of data obtained from comparative studies of HCT116 parental and resistant cells, we further developed DAC resistant MCF-7 and HL-60 cell lines. […] However, DAC resistant HL-60 cells were obtained as a gift from the author (Qin T. et al., Blood 2009; 113, 659-67) and was further selected in our laboratory by treatment with 5 μM DAC.
MTT based cell survival assay was performed in either case, whether to determine the cross-resistance of the DAC resistant cell lines towards inhibitors of DNA methyltransferases, histone acetyltransferases, histone methyltransferases, histone deacetylases, and histone demethylases, or to determine their sensitivity towards selective BET bromodomain inhibitors. […]
(§3) To determine the IC50 of the epigenetic drugs (Tocris Bioscience, Bristol, United Kingdom), four independent experiments were performed using triplicate wells of 96 well plates. […] The wells with medium alone were included alongside as blank for absorbance readings. […]
as §1

[3] = test system: HCT116-RDAC xenografts; test: Anti-tumor activity in xenografted mouse model, HCT116-RDAC (clone R1.4); type: in vivo, SCID mice; conditions: HCT116-RDAC xenograft, DAC 2.5 mg/kg i.p., 10 doses, day 0-21
From the text: (§4) For in vivo validation of HCT116 resistance towards DAC and sensitivity of DAC resistant tumors to (+)-JQ1 treatment, we studied the anti-tumor activity of DAC and (+)-JQ1 in HCT116 parental versus a resistant cell clone R1.4 (HCT116_RDAC). Xenografts were established in 11-12 weeks-old female SCID mice, inoculated with 5×10^6 cells, s.c. on both sides of the chest. After 2 weeks, tumors were palpable (average tumor volume 20 mm^3) and mice were assigned into four groups (8 mice/group). Group I: vehicle control for DAC (10:90, DMSO: PBS) and Group II: DAC, 2.5 mg/kg by i.p. injection once a day for 14 days (5 days on, 2 days off), total 10 doses. […] Body weights of the animals were measured daily and tumor volume data were collected twice a week. […]
(§5) For determining the anti-tumor activity of the drugs, DAC and (+)-JQ1, tumor volume data for each group were transformed into relative tumor volumes followed by calculation of treatment to control ratio (T/C ratio) for each time point. […] Statistical significance of the data was determined by calculating bootstrap p-value, n=10000, one-sided test of H0: T/C ratio=1, H1: T/C ratio <1 (Jianrong Wu., Journal of Biopharmaceutical Statistics 2010; 20, 954-64). After day 21, statistical significance cannot be measured accurately due to decreased survival of animals in control group. […]

[4] = test system: DAC resistant cell lines; test: MTT based cell survival assay, DAC resistant cell lines as a group; conditions: Homo sapiens, all of the resistant cell lines, read-out: resistance to DAC (IC50)
Experimental: The DAC resistant HCT116 cell lines were developed using two methods. […] After long term exposure of the cells to cytotoxic dose of the drug, the bulk population was determined to be resistant.
as §2
Resistance to DAC was confirmed by the MTT-based cell survival assay and resistance index was calculated as the fold increase in the IC50 of the resistant cell lines compared with the untreated control. All of the resistant cell lines were >100 μM resistant to DAC. […]
as §3, §1

[5] = test system: HCT116 xenografts; test: Anti-tumor activity in xenografted mouse model, parental HCT116; type: in vivo, SCID mice; conditions: parental HCT116 xenograft, DAC 2.5 mg/kg i.p., 10 doses, day 0-21
From the text: as §4, §5

Nc1ncn([C@H]2C[C@H](O)[C@@H](CO)O2)c(=O)n1 [DAC, 2′-deoxy-5-azacytidine]
pIC50 ([1]; Homo sapiens, HCT-116, 72 h, read-out: Mean IC50): < 4.00
fold change (resistance index) ([1]; IC50 R2.2 / IC50 HCT116): (>357) fold
pIC50 ([2]; Homo sapiens, MCF7, read-out: Mean IC50): < 4.00
fold change (resistance) ([2]; IC50 MCF-7_RDAC / IC50 MCF-7): > 421 fold
fold effect (anti-tumor activity, aAUC of T/C ratio) [3]: 1.3
pIC50 [4]: < 4.00
fold effect (anti-tumor activity, aAUC of T/C ratio) [5]: 2.9
